Measurements: patent US20240261447A1, “COMPOSITIONS AND METHODS FOR TREATING CONDITIONS RELATED TO THE HEPATO[…]” (THE REGENTS OF THE UNIVERSITY OF MICHIGAN, priority 2021, published 2024)

Test system: Sphincter of Oddi
Details: co-administered with Fe-PSMPs via oral gavage; pancreatic tumor-bearing mice
Experimental: Female C57BL/6 mice 6-8 weeks of age (Jackson Laboratories) were orthotopically inoculated in pancreas with KPC-Luc cells (1.5×10^4). […] During the biodistribution studies, ^68Ga-PSMPs, Fe-PSMPs or Nano-Calcium were administered in mice via oral gavage. Mice were euthanized 2 hours after oral gavage. The pancreas and other major organs were collected and wet-weighted and the radioactivity in the organs were measured by a gamma counter (Wizard 2 1-Detector, PerkinElmer).

O=[N+]([O-])OCC(CO[N+](=O)[O-])O[N+](=O)[O-] [nitroglycerin]
increase in the accumulation of Fe-PSMPs in the pancreas: 10 fold
